Key:
[1] = tested on: intracellular Ca2+ (LRP1 / NMDA receptor) in RGC; experiment: Intracellular Ca2+ increase in RGC after glutamate+glycine (Fluo-8 fluorescence); format: cell-based, rat; conditions: E-LP 100 ng protein/mL, 15 minutes before 300 μM glutamate+10 μM glycine
Procedure: The inflow of calcium into RGC was confirmed in the manner as described below. Specifically, RGC was incubated on a microdish at least for 14 days, followed by incubation at 37° C. for 30 minutes using 3 μM Fluo-8 acetoxymethyl ester (AAT Bioquest, Sunnyvale, Calif.). The resulting cells were washed twice with 500 μl of the above HBSS, and 300 μM glutamate and 10 μM glycine were poured. The fluorescence images were taken at every 500 msec by ORCA-R2 digital camera (Hamamatsu Photonics, Hamamatsu, Japan) and analyzed by MetaFluor fluorescence ratio imaging software (Molecular Devices, Sunnyvale, Calif.).
RGC was labeled with Fluo-8 acetoxymethyl ester for 30 minutes, and Glu (300 μM glutamate+10 μM glycine) was added thereto. Fluorescent ratio images were as represented by colors indicated by the color index shown at the lower side of FIG. 12A. The color was represented as Ratio 0 and Ratio 2 corresponding to the base fluorescent intensity (Ratio 1) before Glu stimulation. The panels on the left and right sides indicate Glu and Glu+E-LP, respectively. […] The scale bar is 80 μm.
FIGS. 12B and C show variations of fFuo-8 fluorescence represented by ΔF/F0. In the figures, F0 indicates the base fluorescence intensity before Glu stimulation. * and **: p<0.005 and p<0.0001 (Glu vs. Glu+E-LP). […]

[2] = biological target: T1, complex of LRP1 and NMDA receptor (Rattus norvegicus, UniProt G3V928); experiment: Immune precipitation of LRP1-NMDA receptor complex from RGC; format: cell-based; conditions: LP added to RGC culture, cells collected in 15 minutes; anti-NMDA receptor 2B immune precipitation
T1 construct: endogenous in cells
Procedure: LP was added to a culture liquid of the retinal glia cells and the cells were collected in 15 minutes, followed by the immune precipitation as will be described below. For the immune precipitation, a rabbit anti-NMDA receptor 2B antibody was used, and the Western blotting was performed for LRP1 and NMDA receptor 2B.
The immune precipitation was carried out in the manner as will be described below. Specifically, the co-immunoprecipitation was performed in accordance with procedures of May et al. (May et al., 2004) by using a mixed solution prepared by adding a RGC dissolved solution to a mixed solution of a complete EDTA-free protease inhibitor cocktail (Roche, Mannheim, Germany) and a PhosSTOP phosphatase inhibitor cocktail (Roche) and a mixture of 10 mM Tris-HCl (pH7.4), 150 mM NaCl, 1 mM MgCl2, 1 mM CaCl2 and 1% Triton X-100. RGC was washed once with HBSS and collected on a 96-well plate using 40 μl per well of a dissolving buffer. The dissolved solutions from wells 9-12 were combined in each group. The RGC dissolved solution was passed fifteen times through a 22-gauge needle and then centrifuged at 15,000×g for 15 minutes at 4° C. The resulting supernatant was pretreated at 4° C. for 1 hour with 40 μl of 50% equilibrated protein G-Sepharose (GE Healthcare, Buckinghamshire, UK), and the Sepharose beads were removed by centrifugation. […]

T1 sequence (G3V928 20-3944 limits assumed, one chain of several): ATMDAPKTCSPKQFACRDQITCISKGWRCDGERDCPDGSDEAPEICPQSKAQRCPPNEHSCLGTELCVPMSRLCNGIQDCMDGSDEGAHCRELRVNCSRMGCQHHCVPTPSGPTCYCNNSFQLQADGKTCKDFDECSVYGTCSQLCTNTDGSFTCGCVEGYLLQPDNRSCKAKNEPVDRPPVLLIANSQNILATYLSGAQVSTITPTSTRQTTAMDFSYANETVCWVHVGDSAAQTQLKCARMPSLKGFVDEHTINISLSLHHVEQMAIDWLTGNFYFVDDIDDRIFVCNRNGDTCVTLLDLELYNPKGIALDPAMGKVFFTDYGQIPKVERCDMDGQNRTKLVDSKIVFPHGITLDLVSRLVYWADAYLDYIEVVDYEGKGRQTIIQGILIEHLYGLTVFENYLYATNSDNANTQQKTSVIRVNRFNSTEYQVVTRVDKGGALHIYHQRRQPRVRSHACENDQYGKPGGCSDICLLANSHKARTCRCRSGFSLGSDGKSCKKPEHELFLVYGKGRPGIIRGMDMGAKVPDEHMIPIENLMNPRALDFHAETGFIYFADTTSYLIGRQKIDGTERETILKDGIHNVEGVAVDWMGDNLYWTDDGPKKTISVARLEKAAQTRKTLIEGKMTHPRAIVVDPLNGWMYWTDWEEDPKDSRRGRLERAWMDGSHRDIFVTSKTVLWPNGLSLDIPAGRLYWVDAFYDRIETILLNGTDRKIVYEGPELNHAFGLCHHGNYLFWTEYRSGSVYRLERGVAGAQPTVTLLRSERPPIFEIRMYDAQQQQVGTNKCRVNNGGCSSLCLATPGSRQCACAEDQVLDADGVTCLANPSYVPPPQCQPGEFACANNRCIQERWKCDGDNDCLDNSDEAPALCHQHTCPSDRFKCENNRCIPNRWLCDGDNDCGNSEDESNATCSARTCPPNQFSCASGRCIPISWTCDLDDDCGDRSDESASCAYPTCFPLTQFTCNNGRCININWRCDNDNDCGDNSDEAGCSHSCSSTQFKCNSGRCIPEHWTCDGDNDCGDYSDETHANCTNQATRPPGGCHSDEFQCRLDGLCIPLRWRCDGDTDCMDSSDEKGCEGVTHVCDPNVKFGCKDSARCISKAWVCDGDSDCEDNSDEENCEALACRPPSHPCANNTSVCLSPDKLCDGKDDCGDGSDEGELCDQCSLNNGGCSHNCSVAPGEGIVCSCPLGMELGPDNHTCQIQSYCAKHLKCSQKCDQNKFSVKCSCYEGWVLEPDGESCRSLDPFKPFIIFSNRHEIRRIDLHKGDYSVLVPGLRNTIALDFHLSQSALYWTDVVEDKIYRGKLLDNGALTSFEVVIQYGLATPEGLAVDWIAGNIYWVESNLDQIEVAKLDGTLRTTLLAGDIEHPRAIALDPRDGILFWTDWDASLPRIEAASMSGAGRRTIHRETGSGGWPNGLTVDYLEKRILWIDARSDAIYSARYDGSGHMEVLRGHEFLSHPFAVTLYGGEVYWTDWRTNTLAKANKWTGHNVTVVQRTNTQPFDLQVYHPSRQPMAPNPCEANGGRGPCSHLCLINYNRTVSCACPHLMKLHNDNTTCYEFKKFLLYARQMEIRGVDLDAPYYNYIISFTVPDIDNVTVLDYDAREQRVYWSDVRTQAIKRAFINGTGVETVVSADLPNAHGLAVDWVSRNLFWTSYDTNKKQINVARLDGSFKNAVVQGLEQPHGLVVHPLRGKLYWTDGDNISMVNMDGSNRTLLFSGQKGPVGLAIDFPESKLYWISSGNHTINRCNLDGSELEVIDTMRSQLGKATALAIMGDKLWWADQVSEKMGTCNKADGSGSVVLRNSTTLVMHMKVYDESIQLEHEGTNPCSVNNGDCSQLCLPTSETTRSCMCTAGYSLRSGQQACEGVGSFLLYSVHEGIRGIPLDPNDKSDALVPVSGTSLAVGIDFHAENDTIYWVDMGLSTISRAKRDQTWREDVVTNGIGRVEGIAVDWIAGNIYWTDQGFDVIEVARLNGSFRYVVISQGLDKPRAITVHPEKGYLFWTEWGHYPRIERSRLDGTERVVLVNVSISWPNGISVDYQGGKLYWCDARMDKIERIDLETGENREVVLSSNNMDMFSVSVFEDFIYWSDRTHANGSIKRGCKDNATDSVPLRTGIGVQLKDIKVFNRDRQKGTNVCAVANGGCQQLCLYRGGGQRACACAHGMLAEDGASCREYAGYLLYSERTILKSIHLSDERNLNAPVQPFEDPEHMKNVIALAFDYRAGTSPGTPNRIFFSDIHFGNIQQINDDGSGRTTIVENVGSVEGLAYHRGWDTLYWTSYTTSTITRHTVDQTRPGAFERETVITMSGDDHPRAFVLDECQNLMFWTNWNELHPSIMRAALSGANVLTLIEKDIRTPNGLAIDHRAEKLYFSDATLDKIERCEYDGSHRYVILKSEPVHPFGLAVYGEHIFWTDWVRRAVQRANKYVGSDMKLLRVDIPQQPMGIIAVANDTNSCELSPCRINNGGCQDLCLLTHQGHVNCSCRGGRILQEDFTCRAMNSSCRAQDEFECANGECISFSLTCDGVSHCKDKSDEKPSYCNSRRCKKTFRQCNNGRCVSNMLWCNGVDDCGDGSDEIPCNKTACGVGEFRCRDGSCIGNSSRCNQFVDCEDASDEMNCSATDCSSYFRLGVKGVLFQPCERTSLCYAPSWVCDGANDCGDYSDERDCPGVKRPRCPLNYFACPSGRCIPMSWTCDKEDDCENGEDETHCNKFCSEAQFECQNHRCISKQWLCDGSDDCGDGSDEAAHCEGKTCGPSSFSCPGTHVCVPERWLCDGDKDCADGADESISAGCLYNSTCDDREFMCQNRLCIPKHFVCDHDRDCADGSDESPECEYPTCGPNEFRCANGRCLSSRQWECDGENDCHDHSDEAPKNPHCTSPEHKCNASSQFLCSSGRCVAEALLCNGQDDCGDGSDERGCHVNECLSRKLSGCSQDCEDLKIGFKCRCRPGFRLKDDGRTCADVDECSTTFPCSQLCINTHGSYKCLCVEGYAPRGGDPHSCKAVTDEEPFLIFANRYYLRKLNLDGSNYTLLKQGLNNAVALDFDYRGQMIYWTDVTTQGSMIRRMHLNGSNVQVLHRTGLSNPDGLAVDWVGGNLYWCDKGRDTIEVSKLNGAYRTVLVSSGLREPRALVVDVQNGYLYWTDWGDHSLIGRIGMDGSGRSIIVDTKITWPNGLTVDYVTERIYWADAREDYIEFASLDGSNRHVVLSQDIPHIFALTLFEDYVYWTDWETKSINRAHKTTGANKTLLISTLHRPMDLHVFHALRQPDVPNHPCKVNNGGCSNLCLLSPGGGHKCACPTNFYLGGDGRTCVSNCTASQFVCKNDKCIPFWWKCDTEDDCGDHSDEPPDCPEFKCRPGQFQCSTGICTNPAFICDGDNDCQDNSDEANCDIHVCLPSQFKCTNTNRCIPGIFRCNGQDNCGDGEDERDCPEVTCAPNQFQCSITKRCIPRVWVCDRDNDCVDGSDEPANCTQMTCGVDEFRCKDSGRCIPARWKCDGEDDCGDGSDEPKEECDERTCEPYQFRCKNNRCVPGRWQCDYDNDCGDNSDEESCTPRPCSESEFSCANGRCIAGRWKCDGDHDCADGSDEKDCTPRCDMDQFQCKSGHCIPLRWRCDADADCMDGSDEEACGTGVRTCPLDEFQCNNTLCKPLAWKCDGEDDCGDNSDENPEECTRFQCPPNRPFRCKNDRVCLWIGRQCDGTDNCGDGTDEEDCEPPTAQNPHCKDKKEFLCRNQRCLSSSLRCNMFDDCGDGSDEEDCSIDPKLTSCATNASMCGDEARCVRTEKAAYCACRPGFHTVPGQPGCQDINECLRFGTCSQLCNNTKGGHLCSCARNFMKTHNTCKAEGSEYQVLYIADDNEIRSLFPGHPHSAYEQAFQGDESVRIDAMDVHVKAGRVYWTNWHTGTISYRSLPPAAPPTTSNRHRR

Substance | increase in intracellular Ca2+ [1] | formation of a complex of LRP1 and NMDA receptor [2]
E-LP: reconstituted lipoprotein of 1-palmitoyl-2-oleyl-glycerophosphocoline, cholesterol and recombinant human apolipoprotein E, molar ratio 100:10:1 or 100:0:1 | inhibits | 
LP: reconstituted lipoprotein of POPC, cholesterol and recombinant human apolipoprotein E3 |  | promotes

— patent US20140228299A1, “PROPHYLACTIC AND THERAPEUTIC AGENT FOR NEUROLOGICAL DISEASES USING LIPOPROTEINS AND PROPHYLACTIC AND THERAPEUTIC METHOD FOR NEUROLOGICAL DISEASES” (National University Corporation Tokyo Medical and Dental …, priority 2011, published 2014)
